Results from ChEMBL document CHEMBL4402555, “Impact of the structure-activity relationship of AHL analogues on quorum sensing in Gram-negative bacteria” (Bioorg Med Chem, 2020).
Each block holds one compound with its values, some of them ahead of it.

Tests used:
[1] = target: T1, Transcriptional activator protein LuxR (Aliivibrio fischeri, UniProt P12746); assay: Antagonist activity at Aliivibrio fischeri LuxR by luminescence method
T1 sequence (P12746 whole entry): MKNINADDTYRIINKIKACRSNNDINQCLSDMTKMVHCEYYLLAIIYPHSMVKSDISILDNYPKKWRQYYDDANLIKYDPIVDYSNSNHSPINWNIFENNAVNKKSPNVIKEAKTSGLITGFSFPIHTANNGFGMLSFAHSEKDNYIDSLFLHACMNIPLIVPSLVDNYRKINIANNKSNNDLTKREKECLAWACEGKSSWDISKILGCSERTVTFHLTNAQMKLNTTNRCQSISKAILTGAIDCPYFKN

[2] = Inhibition of LasR in Escherichia coli JLD271 harboring pSC11/pJN105L using CPRG as substrate incubated for 4 hrs by Miller assay method
[3] = target: T1, Transcriptional activator protein LuxR; assay: Antagonist activity at Aliivibrio fischeri ES114 LuxR after 4 to 8 hrs by luminescence method
[4] = Activation of LasR in Escherichia coli JLD271 harboring pSC11/pJN105L using CPRG as substrate incubated for 4 hrs by Miller assay method
[5] = target: T2, Transcriptional activator protein LasR (Pseudomonas aeruginosa (strain ATCC 15692 / PAO1 / 1C / PRS 101 / LMG12228), UniProt P25084); assay: Antagonist activity at Pseudomonas aeruginosa LasR transfected with lasB-GFP by […] method
T2 sequence (P25084 whole entry): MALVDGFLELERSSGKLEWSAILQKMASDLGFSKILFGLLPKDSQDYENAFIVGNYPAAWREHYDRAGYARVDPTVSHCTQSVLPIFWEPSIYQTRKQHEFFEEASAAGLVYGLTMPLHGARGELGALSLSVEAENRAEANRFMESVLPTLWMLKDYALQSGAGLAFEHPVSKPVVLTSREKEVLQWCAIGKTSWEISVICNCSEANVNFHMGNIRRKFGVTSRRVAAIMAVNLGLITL

[6] = target: T2, Transcriptional activator protein LasR; assay: Activation of LasR in Pseudomonas aeruginosa PAO-JP2 harboring plasI-LVAgfp incubated for 6 hrs by fluorescence method
[7] = target: T2, Transcriptional activator protein LasR; assay: Inhibition of LasR in Pseudomonas aeruginosa PAO-JP2 harboring plasI-LVAgfp incubated for 6 hrs by fluorescence method
[8] = Inhibition of quorum sensing system in Pseudomonas aeruginosa transfected with lasB-lacZ in presence of PA1
[9] = system: Pseudomonas aeruginosa; assay: Inhibition of LasI/LasR in Pseudomonas aeruginosa ATCC 9027 assessed as reduction in protein-mediated transition from microcolonies to mature biofilm at 400 uM incubated for 22 hrs by crystal violet staining assay relative to control
[10] = system: Chromobacterium violaceum; assay: Inhibition of CviI/CviR in Chromobacterium violaceum ATCC 31532 assessed as reduction in violacein production at 40 uM incubated for 24 hrs relative to control
[11] = system: Pseudomonas aeruginosa; assay: Inhibition of LasI/LasR in Pseudomonas aeruginosa ATCC 15422 assessed as reduction in protein-mediated transition from microcolonies to mature biofilm at 400 uM incubated for 22 hrs by crystal violet staining assay relative to control
[12] = system: Pseudomonas aeruginosa PAO1; assay: Inhibition of LasI/LasR in Pseudomonas aeruginosa PAO1 assessed as reduction in protein-mediated transition from microcolonies to mature biofilm at 400 uM incubated for 22 hrs by crystal violet staining assay relative to control
[13] = Inhibition of CviI/CviR in Chromobacterium violaceum ATCC 31532 assessed as reduction in violacein production incubated for 24 hrs
[14] = system: Pseudomonas aeruginosa PAO1; assay: Inhibition of LasI/LasR in Pseudomonas aeruginosa PAO1 assessed as reduction in swarming motility at 400 uM incubated for 18 hrs relative to control
[15] = target: T3, Regulatory protein SdiA (Escherichia coli (strain K12)) (UniProt P07026); assay: Inhibition of sdiA in Escherichia coli K-12 assessed as reduction in protein-mediated transition from microcolonies to mature biofilm at 400 uM incubated for 22 hrs by crystal violet staining assay relative to control
T3 sequence (whole entry): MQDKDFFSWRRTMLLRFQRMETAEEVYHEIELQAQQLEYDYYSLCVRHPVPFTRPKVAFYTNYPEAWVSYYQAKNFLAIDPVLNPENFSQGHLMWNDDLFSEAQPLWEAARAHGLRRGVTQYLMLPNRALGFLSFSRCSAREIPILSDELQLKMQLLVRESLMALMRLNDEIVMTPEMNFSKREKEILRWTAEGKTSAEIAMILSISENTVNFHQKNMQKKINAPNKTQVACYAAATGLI

[16] = target: T1, Transcriptional activator protein LuxR; assay: Agonist activity at Aliivibrio fischeri LuxR by luminescence method
[17] = target: T1, Transcriptional activator protein LuxR; assay: Inhibition of Aliivibrio fischeri LuxR by luminescence method
[18] = target: T4, Transcriptional activator protein LasR (Pseudomonas aeruginosa (strain ATCC 15692 / PAO1 / 1C / PRS 101 / LMG12228)) (UniProt P25084); assay: Antagonist activity at LasR in Pseudomonas aeruginosa PAO-JP2 harboring plasI-LVAgfp assessed as inhibition of GFP expression by measuring reduction in fluorescence intensity at 100 uM incubated for 6 hrs in presence of AI1 by fluorescence based competitive assay relative to control
T4 sequence (whole entry): T2 sequence (P25084 whole entry)

Structure (SMILES): O=C(NCc1cc(Br)cc(Br)c1OC(=O)c1ccccc1[N+](=O)[O-])c1ccccc1Cl
EC50 [4]: 0.0078 µM

Structure (SMILES): CCCCCCCSCC(=O)N[C@H]1CCOC1=O
IC50 [5]: 6 µM

Structure (SMILES): O=C(CC(=O)NC1CCOC1=O)Cc1cccc(Cl)c1 (configuration not stated)
IC50 [1]: 4 µM

Structure (SMILES): O=C(CC(=O)NC1CCOC1=O)Cc1ccc(F)cc1 (configuration not stated)
IC50 [1]: 4 µM

Structure (SMILES): CCCCCCCCCS(=O)(=O)NC1CCOC1=O (configuration not stated)
IC50 [1]: 40 µM

Structure (SMILES): O=C1OCCC1NS(=O)(=O)CCc1ccccc1 (configuration not stated)
IC50 [1]: 3 µM

Structure (SMILES): O=C(Cc1ccc(C(F)(F)F)cc1)N[C@H]1CCOC1=O
EC50 [6]: 140 µM
IC50 [7]: 3 µM
IC50 [3]: 0.6 µM
EC50 [4]: 0.65 µM

Structure (SMILES): CCCCCCCCCSCC(=O)N[C@H]1CCOC1=O
IC50 [5]: 50 µM

Structure (SMILES): O=C(Cc1ccc([N+](=O)[O-])cc1)N[C@H]1CCOC1=O
IC50 [3]: 1 µM

Structure (SMILES): CCCCCCCCCC(=O)NC1CCCC1 [N-CYCLOPENTYLDECANAMIDE]
IC50 [8]: 80 µM
IC50 [7]: > 50 µM

Structure (SMILES): CCCCCCCCCC(=O)Oc1c(-c2ccc(OC)cc2)oc2ccccc2c1=O
inhibition [9]: 22.5%
inhibition [10]: 83.5%
inhibition [11]: 28.1%
inhibition [12]: 11.6%
IC50 [13]: 13.9 µM
inhibition [14]: 69.8%
inhibition [15]: 14.3%

Structure (SMILES): O=C(COc1cccc(Br)c1)N[C@H]1CCSC1=O
EC50 [6]: 4.2 µM
EC50 [4]: 0.013 µM

Structure (SMILES): CCC(=O)CC(=O)Nc1ccccc1
IC50 [7]: 9.7 µM
EC50 [4]: 0.92 µM

Structure (SMILES): O=C(CC(=O)N[C@H]1CCOC1=O)CC1CCCCC1
EC50 [16]: 1.1 µM

Structure (SMILES): COc1ccc(CC(=O)CC(=O)NC2CCOC2=O)cc1 (configuration not stated)
IC50 [1]: 3 µM

Structure (SMILES): O=C1OCCC1NS(=O)(=O)CCCc1ccccc1 (configuration not stated)
IC50 [1]: 20 µM

Structure (SMILES): CCCCCCCCCC(=O)N[C@H]1CCSC1=O
IC50 [17]: 0.13 µM

Structure (SMILES): CCC(=O)CC(=O)Nc1cccc(OC)c1
IC50 [2]: 4.7 µM
IC50 [7]: > 200 µM
EC50 [4]: > 100 µM

Structure (SMILES): O=C(CCCc1ccccc1)N[C@H]1CCOC1=O
IC50 [2]: 1 µM
IC50 [7]: 175 µM

Structure (SMILES): CCCCCCCCCC(=O)CC(=O)CCN[C@H]1CCC[C@@H]1O
inhibition [18]: 70%

Results, then the compound that gave them:

IC50 [1]: 40 µM
Structure (SMILES): O=C1OCCC1NS(=O)(=O)Cc1ccccc1 (configuration not stated)

IC50 [2]: 3.5 µM
IC50 [3]: 3.7 µM
Structure (SMILES): O=C(Cc1ccc(Br)cc1)N[C@H]1CCOC1=O

IC50 [1]: 40 µM
Structure (SMILES): O=C(Cc1ccccc1)CS(=O)(=O)NC1CCOC1=O (configuration not stated)

IC50 [1]: 2 µM
Structure (SMILES): O=C(CC(=O)NC1CCOC1=O)Cc1ccccc1 (configuration not stated)

IC50 [2]: 0.078 µM
EC50 [4]: 4.5 µM
Structure (SMILES): CCCCCC(=O)CC(=O)N[C@H]1CCOC1=O

IC50 [1]: 2 to 3 µM
Structure (SMILES): O=C(CSCc1ccccc1)NC1CCOC1=O (configuration not stated)

IC50 [2]: 2.8 µM
Structure (SMILES): O=C(CC(=O)N[C@H]1CCOC1=O)Cc1ccccc1

IC50 [3]: 0.9 µM
Structure (SMILES): O=C(Cc1ccc(I)cc1)N[C@H]1CCOC1=O

IC50 [1]: 2 to 3 µM
Structure (SMILES): O=C(COCc1ccccc1)NC1CCOC1=O (configuration not stated)

IC50 [3]: 4.1 µM
Structure (SMILES): O=C(Cc1ccc(Cl)cc1)N[C@H]1CCOC1=O
